The target in the experiment is xanthine oxidase (Homo sapiens, UniProt P47989). In words: Xanthine oxidase (XOD) inhibition, uric acid production read at OD290 nm. The experiment is classed as biochemical. Conditions: read-out: Inhibition rate (%). The protocol:
Xanthine oxidase catalyzes a xanthine substrate to produce uric acid and superoxide anion, and uric acid has a characteristic absorption peak under 290 nm UV conditions. By measuring the change curve of absorbance value within a certain time, the slope of this curve is the production rate of the uric acid, to measure the change of the activity of xanthine oxidase, so as to judge the uric acid lowering ability of the sample.
92.4 μL of xanthine oxidase mother solution (5 U/770 μL) is drawn in a centrifuge tube, and diluted with 11.9076 mL of PBS to obtain 0.05 U/mL xanthine oxidase working solution which shall be prepared for immediate use.
0.02284 g of xanthine is weighed in a beaker; 1.2 mL of 1 mol/L NaOH solution is added; ultrasonic treatment is conducted for 20 min; and the volume is fixed to 100 mL with the PBS to obtain 1.5 mmol/L xanthine working solution.
Eucommia ulmoides Oliv. leaf extract solutions: 0.50 g of corresponding Eucommia ulmoides Oliv. leaf extract sample in embodiment 5 is weighed; the volume is fixed to 50 mL with the PBS; the solution is thoroughly mixed well to prepare 10.0 mg/mL mother solution; and the mother solution is diluted with the PBS to different multiples to obtain different concentrations of Eucommia ulmoides Oliv. solutions.
2.1 A proper quantity of centrifugal tubes are taken and numbered as OD1, OD2, OD3 and OD4 respectively. Reagents are added to each tube according to the combinations of Table 1.
The concentrations are plotted in horizontal coordinates and the inhibition rates are plotted in vertical coordinates to calculate the concentration IC50 with half inhibition rate.

Usually inhibition stands for the drop in the measured response relative to a control, in per cent.

xanthine oxidase, sequence (P47989 whole entry, species assumed): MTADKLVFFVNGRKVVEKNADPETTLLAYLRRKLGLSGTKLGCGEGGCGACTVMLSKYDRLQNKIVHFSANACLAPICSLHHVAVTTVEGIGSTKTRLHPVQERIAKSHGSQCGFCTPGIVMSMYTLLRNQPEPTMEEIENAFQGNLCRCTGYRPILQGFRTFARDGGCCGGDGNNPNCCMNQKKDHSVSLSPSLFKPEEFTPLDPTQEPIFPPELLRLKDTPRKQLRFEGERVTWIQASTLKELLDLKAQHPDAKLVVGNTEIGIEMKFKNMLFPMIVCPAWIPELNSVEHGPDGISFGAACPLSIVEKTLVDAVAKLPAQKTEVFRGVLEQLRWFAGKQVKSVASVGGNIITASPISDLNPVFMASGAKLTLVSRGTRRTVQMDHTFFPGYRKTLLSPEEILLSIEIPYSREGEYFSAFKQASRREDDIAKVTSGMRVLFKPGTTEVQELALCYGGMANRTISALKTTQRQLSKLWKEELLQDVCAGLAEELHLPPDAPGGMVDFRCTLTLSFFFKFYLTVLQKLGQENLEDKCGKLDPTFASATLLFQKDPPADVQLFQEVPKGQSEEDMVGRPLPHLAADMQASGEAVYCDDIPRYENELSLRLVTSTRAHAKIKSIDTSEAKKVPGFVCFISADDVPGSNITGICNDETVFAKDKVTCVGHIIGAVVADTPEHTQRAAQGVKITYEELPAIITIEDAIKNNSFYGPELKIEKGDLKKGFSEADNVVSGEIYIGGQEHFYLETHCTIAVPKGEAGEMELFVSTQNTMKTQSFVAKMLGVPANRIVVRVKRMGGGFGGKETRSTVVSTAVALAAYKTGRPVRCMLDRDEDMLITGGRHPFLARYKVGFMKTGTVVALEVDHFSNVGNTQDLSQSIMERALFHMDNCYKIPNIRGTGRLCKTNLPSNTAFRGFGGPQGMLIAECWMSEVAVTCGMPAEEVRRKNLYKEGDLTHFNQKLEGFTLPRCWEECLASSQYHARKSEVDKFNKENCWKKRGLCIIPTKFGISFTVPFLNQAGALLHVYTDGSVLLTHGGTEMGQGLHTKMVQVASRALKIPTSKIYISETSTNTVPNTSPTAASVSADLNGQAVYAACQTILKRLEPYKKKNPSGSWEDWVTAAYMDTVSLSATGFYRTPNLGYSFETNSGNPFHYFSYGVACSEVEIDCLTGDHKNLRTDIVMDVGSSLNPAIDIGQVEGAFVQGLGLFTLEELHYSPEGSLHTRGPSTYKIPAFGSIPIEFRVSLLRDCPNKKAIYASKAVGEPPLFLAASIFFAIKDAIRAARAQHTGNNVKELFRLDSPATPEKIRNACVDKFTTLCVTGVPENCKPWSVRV

Consider `Oc1ncnc2[nH]ncc12` [Allopurinol, allopurinol], for which the inhibition at 0.05 µg/mL (0.05 μg/ml) amounted to 34.1%. Moreover, the inhibition at 1 µg/mL (1 μg/ml) was found to be 44.9%. Under “5 μg/ml”, the inhibition at 5 µg/mL is 59.4%. Besides, the inhibition at 10 µg/mL (10 μg/ml) amounted to 74%. The inhibition at 15 µg/mL (15 μg/ml) is 81.2%. Moreover, the inhibition at 20 µg/mL (20 μg/ml) was 87.2%. In addition, the inhibition at 25 µg/mL (25 μg/ml) stood at 93.3%.
